Results published in US20230051589A1, “COMPOUNDS AND COMPOSITIONS FOR TREATING CONDITIONS ASSOCIATED WITH NLRP ACTIVITY” (Novartis AG, priority 2018, published 2023).
Read-outs that look alike come from different tables or passages of the source.

System: IL-1β production in hTHP-1 cells
Assay: hTHP-1 assay containing 10% fetal bovine serum
Format: cell-based, human
Procedure: inhibition=100-100×[HCave−Readout/(HCave−LCave)] • 2. Fit the normalized data in a dose-response manner using XLfit, and calculate the compound concentration. Tables B1, B2, and B3 show the biological activity of compounds in hTHP-1 assay containing 2% fetal bovine serum. […] Key: <0.008 μM=“++++++”; ≥0.008 and <0.04 μM=“+++++”; ≥0.04 and <0.2 μM=“++++”; ≥0.2 and <1 μM=“+++”; ≥1 and <5 μM=“++”; ≥5 and <30 μM=“+”.

[1] = Homo sapiens, read-out: hTHP-1 IC50 in 10% FBS, hTHP-1 assay containing 10% fetal bovine serum, Table B4

IC50 (read-out: hTHP-1 IC50 in 10% FBS, hTHP-1 assay containing 10% fetal bovine serum, Table B4) [nM]	IC50 [1] [nM]	Compound
1000 to 5000	–	CC(C)(O)c1csc(S(N)(=O)=NC(=O)Nc2c3c(cc4c2CC4)CCC3)c1F (single isomer, unassigned) [Example 883, (S) or (R)-3-fluoro-4-(2-hydroxypropan-2-yl)-N′-((2,4,5,6-tetrahvdro-1H-cyclobuta[f]inden-3-yl)carbamoyl)thiophene-2-sulfonimidamide]
–	40 to 200	CC(C)(O)c1csc(S(N)(=O)=NC(=O)Nc2c3c(cc4c2CCC4)CCC3)c1F (stereo not drawn) [Example 878, 3-Fluoro-N′-((1,2,3,5,6,7-hexahydro-s-indacen-4-yl)carbamoyl)-4-(2-hydroxypropan-2-yl)thiophene-2-sulfonimidamide]
–	40 to 200	CC(C)(O)c1csc(S(N)(=O)=NC(=O)Nc2c3c(cc4c2CC4)CCC3)c1F (stereo not drawn) [Example 879, 3-Fluoro-4-(2-hydroxypropan-2-yl)-N′-((2,4,5,6-tetrahydro-1H-cyclobuta[f]inden-3-yl)carbamoyl)thiophene-2-sulfonimidamide]
